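Protocol summary: plate cells (96-well), add compound at 5 concentrations, incubate 48 h, interpolate endpoints linearly. GI50 marks 50% less growth. At the TGI there is no net growth.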
What was measured:
Assay in all cases: NCI-60 cell line screen, 48 h
BT-549 breast = test system: BT-549 breast
HS 578T breast = test system: HS 578T breast
MDA-MB-435 = test system: MDA-MB-435
NCI-H226 lung = test system: NCI-H226 lung
NCI/ADR-RES ovarian = test system: NCI/ADR-RES ovarian
RPMI-8226 leukemia = test system: RPMI-8226 leukemia
SNB-75 CNS = test system: SNB-75 CNS
T-47D breast = test system: T-47D breast

| SMILES | GI50 (BT-549 breast) | TGI (BT-549 breast) | GI50 (HS 578T breast) | TGI (HS 578T breast) | GI50 (MDA-MB-435) | TGI (MDA-MB-435) | GI50 (NCI-H226 lung) | TGI (NCI-H226 lung) | GI50 (NCI/ADR-RES ovarian) | TGI (NCI/ADR-RES ovarian) | GI50 (RPMI-8226 leukemia) | TGI (RPMI-8226 leukemia) | GI50 (SNB-75 CNS) | TGI (SNB-75 CNS) | GI50 (T-47D breast) | TGI (T-47D breast) |
| --- | --- | --- | --- | --- | --- | --- | --- | --- | --- | --- | --- | --- | --- | --- | --- | --- |
| C=CCCCCCCCCCCC1(O)C=CC2=[N+](CCCCCN=C(N)N)CCCN21 (stereo not given) | 3.56 µM | 13.2 µM | 3.82 µM | 13.1 µM | 12.3 µM | 31.1 µM | 3.86 µM | 21 µM | 22.2 µM | 85.6 µM | 2.61 µM | 29.5 µM | 8.62 µM | 25.9 µM | 22 µM | 55.6 µM |
| CCOC(=O)C(=Cc1cccc(Cl)c1)C(=O)OCC | 2.06 µM | 5.07 µM | 4.29 µM | 29.8 µM | 2.07 µM | 5.04 µM | 2.49 µM | 6.18 µM | 3.3 µM | 16.9 µM | 2.1 µM | 5.32 µM | 2.12 µM | 7.8 µM | 1.78 µM | 4.26 µM |
| N#C/C=C(\c1ccc([N+](=O)[O-])cc1)n1nnc2cc(Cl)c(Cl)cc21 | 1.77 µM | 3.77 µM | 2.39 µM | 8.94 µM | 1.75 µM | 3.7 µM | 3 µM | 17.1 µM | 2.54 µM | 8.79 µM | 0.604 µM | 2.91 µM | 2.13 µM | 8.11 µM |  |  |
| C[C@H]1Oc2cc(cnc2N)-c2c(nn(C)c2C#N)CN(C)C(=O)c2ccc(F)cc21 | > 100 µM | > 100 µM | 18.3 µM | > 100 µM | 48.6 µM | > 100 µM | 40.8 µM | > 100 µM | 65.5 µM | > 100 µM | > 100 µM | > 100 µM | 21.7 µM | > 100 µM | 36.2 µM | > 100 µM |
| O=c1[nH]c(=O)n(C2CC(O)C(CO)O2)cc1CO (stereo not given) | > 100 µM | > 100 µM | > 100 µM | > 100 µM | > 100 µM | > 100 µM | > 100 µM | > 100 µM | > 100 µM | > 100 µM | > 100 µM | > 100 µM | > 100 µM | > 100 µM |  |  |
| CC(=O)OC12c3ccccc3-c3ccccc3C1C1C(=O)N(C)C(=O)C12Cl (stereo not given) |  |  |  | > 10 µM |  | > 10 µM |  | > 10 µM |  | > 10 µM |  | > 10 µM |  | > 10 µM |  | > 10 µM |
| COc1ccccc1N1CCN(CCCn2c(=O)c3c(OC)nc(C)cc3c(=O)n2-c2ccccc2)CC1 |  |  | > 100 µM | > 100 µM | > 100 µM | > 100 µM | > 100 µM | > 100 µM | > 100 µM | > 100 µM | > 100 µM | > 100 µM | > 100 µM | > 100 µM | > 100 µM | > 100 µM |
| COc1ccncc1C#Cc1cncc(C(=O)Nc2ccc(CN3CCN(C)CC3)c(C(F)(F)F)c2)c1 | 21.1 µM | > 100 µM | 7.75 µM | 52.5 µM | 15 µM | > 100 µM | 4.6 µM | > 100 µM | 33.4 µM | > 100 µM |  |  | 25.9 µM | > 100 µM | 89.1 µM | > 100 µM |
| O=c1c2ccccc2sc2cccc(NCCCN3CCN(CCCNc4cccc5sc6ccccc6c(=O)c45)CC3)c12 |  |  |  | > 100 µM |  | > 100 µM |  | > 100 µM |  | > 100 µM |  | > 100 µM |  | > 100 µM |  | > 100 µM |
| O=c1cc2oc3cc(O)c(O)cc3c(-c3ccccc3O)c-2cc1O | 14.4 µM | 40.3 µM |  |  | 4.57 µM | > 100 µM | 14.4 µM | > 100 µM | 8.16 µM | 42 µM |  |  | 3.81 µM | > 100 µM | 9.51 µM | > 100 µM |
| COC1[C@@H](OC(C)=O)[C@@H](NC(=O)C(Cl)(Cl)Cl)C(I)[C@@H](N2C(=O)c3ccccc3C2=O)[C@H]1OC (stereo not given in full) |  |  |  |  |  |  |  | > 100 µM |  |  |  | > 100 µM |  | > 100 µM |  |  |
| CCN(CC)CCOc1ccc(/C=C2\CC3C4CC=C5C[C@@H](O)CC[C@]5(C)C4CC[C@]3(C)C2=O)cc1OC (stereo not given in full) | 26 µM | > 52.6 µM | 5.62 µM | 33.7 µM | 1.94 µM | 3.74 µM | 2.77 µM | 8.77 µM | 16.2 µM | 56.1 µM |  |  | 15.6 µM | 34.8 µM | 2.79 µM | > 100 µM |
| COC12C=C/C(=C(/C(=O)OCc3ccncc3)C(=O)CCCCCCCCC3(OC)C=C/C(=C(/C(=O)OCc4ccncc4)C(=O)CCCCCCCC1)O3)O2 | 0.638 µM | 3.21 µM | 1.75 µM | 15.4 µM | 0.121 µM | 0.312 µM |  |  | 0.774 µM | 3.93 µM | 0.196 µM | 1.1 µM | 0.779 µM | 1.97 µM | 0.706 µM | 21.5 µM |
| CCOc1ccc2nc(S/C(=C/C=C(C#N)C#N)c3ccc(C)cc3)sc2c1 | 25.6 µM | 70.1 µM | 32.2 µM | 88.4 µM | 20.7 µM | 59.4 µM | 20.3 µM | 42.4 µM | 24 µM | 50.7 µM |  |  |  |  | 42.4 µM | > 100 µM |
| Cc1ccc(/C=C/c2c(C(=O)/C=C/c3ccc(C(F)(F)F)cc3)c(C)nc3ccccc23)cc1 | 1.58 µM | 3.34 µM | 1.66 µM | 4.63 µM | 1.49 µM | 2.89 µM | 1.5 µM | 3.03 µM | 2.22 µM | 5.92 µM | 0.46 µM | 2.92 µM | 1.23 µM | 2.48 µM |  |  |
| NS(=O)(=O)c1ccc(N(/C=C/C(=O)C(F)(F)F)CC(=O)c2ccc(Cl)cc2)cc1 | 44.5 µM | > 100 µM | > 100 µM | > 100 µM | > 100 µM | > 100 µM | 28.9 µM | 94.1 µM | 47.6 µM | > 100 µM | 20.2 µM | 53.6 µM |  |  | 63.6 µM | > 100 µM |
| Cn1cc(C2=C(c3cn(C)c4cc(C(N)=O)ccc34)C(=O)NC2=O)c2ccccc21 | 7.92 µM | > 25 µM | 0.687 µM | 4.02 µM |  |  | 4.29 µM | > 21.7 µM | 1.16 µM | > 25 µM | 1.65 µM | > 20.8 µM | 0.447 µM | > 7.9 µM | 1.98 µM | > 25 µM |
